This test addresses T1, Full-length glucokinase (beta cell isoform) (Homo sapiens, UniProt P35557).
T1 construct: Full-length glucokinase (beta cell isoform) was His-tagged at N-terminus; His tag (N); made in house; host or cells: E. coli BL21(DE3) carrying the pBCGK vector
T1 sequence (P35557 1-465): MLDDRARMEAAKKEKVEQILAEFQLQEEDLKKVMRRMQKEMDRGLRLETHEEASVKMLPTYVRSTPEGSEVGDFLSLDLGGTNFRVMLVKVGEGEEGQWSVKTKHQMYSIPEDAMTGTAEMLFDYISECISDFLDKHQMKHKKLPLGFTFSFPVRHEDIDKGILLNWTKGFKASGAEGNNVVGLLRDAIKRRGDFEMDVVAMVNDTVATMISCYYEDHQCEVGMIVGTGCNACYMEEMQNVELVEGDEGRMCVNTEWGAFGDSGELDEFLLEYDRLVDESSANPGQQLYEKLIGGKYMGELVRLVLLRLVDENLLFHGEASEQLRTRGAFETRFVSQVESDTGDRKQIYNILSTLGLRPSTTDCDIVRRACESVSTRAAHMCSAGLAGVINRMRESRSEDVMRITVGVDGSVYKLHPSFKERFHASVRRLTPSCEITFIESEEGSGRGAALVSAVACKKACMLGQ
Briefly: In vitro glucokinase activation assay (PK/LDH coupled, NADH depletion at 340 nm). As to conditions: 5 mM glucose, 2.5 mM ATP; for EC50: pH 7.1, room temperature; for Emax: pH 7.1, (Va/Vo−1)×100 fitted, read-out: Maximum Activation (%). It counts as biochemical. How it is done:
Full-length glucokinase (beta cell isoform) was His-tagged at N-terminus and purified by a Ni column followed by size exclusion chromatography. A 320 mL column was packed in house using Superdex75 (Amersham Pharmacia, Carlsbad, Calif.) preparation grade resin. Glucose was obtained from Calbiochem (San Diego, Calif.) and other reagents were purchased from Sigma-Aldrich (St. Louis, Mo.).
All assays were performed in a Corning 384-well plate using Spectramax PLUS spectrophotometer (Molecular Devices, Sunnyvale, Calif.) at room temperature. The final assay volume was 40 μL. The buffer conditions used in this assay were as follows: 50 mM HEPES, 5 mM glucose, 2.5 mM ATP, 3.5 mM MgCl2, 0.7 mM NADH, 2 mM dithiothreitol, 1 unit/mL pyruvate kinase/lactate dehydrogenase (PK/LDH), 0.2 mM phosphoenolpyruvate, and 25 mM KCl. The buffer pH was 7.1. The test compound in dimethylsulfoxide solution was added to the buffer and mixed by a plate shaker for 7.5 minutes.
Glucokinase was added to the buffer mixture to initiate the reaction in the presence and absence of compound. The reaction was monitored by absorbance at 340 nm due to the depletion of NADH. The initial reaction velocity was measured by the slope of a linear time course of 0-300 seconds. The percentage of maximum activation was calculated by the following equation: % Maximum Activation=(Va/Vo−1)×100; wherein each of Va and Vo is defined as the initial reaction velocity in the presence and absence of the tested compound, respectively.
The glucokinase activities were measured as a function of compound concentrations.

Molecules are shown by their SMILES.

The EC50 is the concentration needed to bring the measured effect to its halfway point. Low readings indicate a more potent agent, high ones a less potent agent. Turning to `Cc1cc2c(Oc3cnc(C(=O)N(C)C)nc3)cc(C(=O)Nc3ccn(C)n3)cc2o1` [Example 4, N,N-dimethyl-5-(2-methyl-6-((1-methyl-1H-pyrazol-3-yl)-carbamoyl)benzofuran-4-yloxy)pyrimidine-2-carboxamide], the response was half-maximal at 629 nM (EC50) and the Emax turned out to be 63.9%.

As for `CCN(C)C(=O)c1cnc(Oc2cc(C(=O)Nc3cnc(C)cn3)cc3oc(C)cc23)cn1` [Example 7, N-ethyl-N-methyl-5-(2-methyl-6-((5-methylpyrazin-2-yl)carbamoyl)-benzofuran-4-yloxy)pyrazine-2-carboxamide], a half-maximal response (EC50) required 474 nM and the Emax was 63.4%.

With `CCN(C)C(=O)c1ncc(Oc2cc(C(=O)Nc3cnc(C)cn3)cc3oc(C)cc23)cn1` [Example 5, N-ethyl-N-methyl-5-(2-methyl-6-((5-methylpyrazin-2-yl)carbamoyl)benzofuran-4-yloxy)pyrimidine-2-carboxamide], the half-maximal effective concentration (EC50) was determined as 546 nM and the Emax worked out at 57.6%.

Consider `COc1cnc(NC(=O)c2cc(Oc3cnc(C(=O)N(C)C)nc3)c3cc(C)oc3c2)cn1` [Example 3, 5-(6-((5-methoxypyrazin-2-yl)carbamoyl)-2-methylbenzofuran-4-yloxy)-N,N-dimethylpyrimidine-2-carboxamide], for which a half-maximal effect (EC50) was put at 462 nM and the Emax is 69.5%.

On to `CCN(C)C(=O)c1ncc(Oc2cc(C(=O)Nc3ccn(C)n3)cc3oc(C)cc23)cn1` [Example 6, N-ethyl-N-methyl-5-(2-methyl-6-((1-methyl-1H-pyrazol-3-yl)carbamoyl)benzofuran-4-yloxy)pyrimidine-2-carboxamide], for which a half-maximal effect (EC50) was put at 382 nM and the Emax was 54.1%.

The values above are taken from US8735396B2, “Benzofuranyl derivatives” (Pfizer Inc., priority 2009, dated 2014).
